Paper PMC3523126 (Journal of the American Chemical Society, 2012)

Legend:
Calpain-1 [1] = biological target: T1, Calpain-1 (Homo sapiens, UniProt P07384); conditions: pan-papain family cysteine protease ABP; cited from earlier work
T1 sequence (P07384 1-714): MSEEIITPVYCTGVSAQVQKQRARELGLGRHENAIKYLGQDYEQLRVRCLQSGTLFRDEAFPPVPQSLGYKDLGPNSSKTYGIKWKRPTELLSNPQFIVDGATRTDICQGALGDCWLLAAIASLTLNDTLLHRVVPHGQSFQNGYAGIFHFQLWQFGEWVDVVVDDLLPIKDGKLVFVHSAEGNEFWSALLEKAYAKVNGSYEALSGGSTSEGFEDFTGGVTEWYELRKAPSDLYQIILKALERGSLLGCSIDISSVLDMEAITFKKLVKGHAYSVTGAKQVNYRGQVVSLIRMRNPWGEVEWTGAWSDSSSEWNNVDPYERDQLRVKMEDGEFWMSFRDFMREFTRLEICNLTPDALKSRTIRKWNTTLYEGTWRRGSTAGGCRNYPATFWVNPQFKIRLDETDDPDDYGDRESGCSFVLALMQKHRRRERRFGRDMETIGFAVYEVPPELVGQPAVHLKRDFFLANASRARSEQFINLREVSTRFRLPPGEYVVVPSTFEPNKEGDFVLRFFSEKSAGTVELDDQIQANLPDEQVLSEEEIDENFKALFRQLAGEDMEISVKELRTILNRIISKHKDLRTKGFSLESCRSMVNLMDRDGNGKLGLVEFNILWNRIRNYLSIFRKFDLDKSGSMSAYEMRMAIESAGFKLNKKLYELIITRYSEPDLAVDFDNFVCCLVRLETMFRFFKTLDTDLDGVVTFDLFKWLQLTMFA
T1 sequence (P04632 1-268 partner): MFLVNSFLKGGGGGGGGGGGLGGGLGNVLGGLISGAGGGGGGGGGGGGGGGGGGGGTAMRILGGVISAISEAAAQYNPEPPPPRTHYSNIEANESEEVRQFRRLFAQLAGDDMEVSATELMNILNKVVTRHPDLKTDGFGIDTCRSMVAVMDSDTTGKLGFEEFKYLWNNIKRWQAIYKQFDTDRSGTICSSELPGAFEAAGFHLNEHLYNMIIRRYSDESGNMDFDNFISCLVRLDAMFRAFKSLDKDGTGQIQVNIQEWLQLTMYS

Calpain-1 [2] = biological target: T1, Calpain-1; assay: Kinetic analysis of calpain-1 inhibition; format: biochemical; conditions: crosslinked peptide; Michaelis-Menten and Lineweaver-Burke analysis
Cathepsin L = Cathepsin L (Homo sapiens, UniProt P07711); assay: Protease fluorescence activity assay, cathepsin L inhibition; format: biochemical; conditions: crosslinked peptide; ratio of Ki values
Cathepsin L, sequence (P07711 114-333, species assumed): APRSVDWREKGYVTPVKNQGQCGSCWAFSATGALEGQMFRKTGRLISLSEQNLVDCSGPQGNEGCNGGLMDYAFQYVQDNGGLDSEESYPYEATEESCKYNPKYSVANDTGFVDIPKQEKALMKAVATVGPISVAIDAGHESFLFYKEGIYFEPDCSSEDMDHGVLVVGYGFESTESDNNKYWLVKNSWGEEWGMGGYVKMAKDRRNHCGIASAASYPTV

| Mechanism of calpain-1 inhibition (Calpain-1 [2]) | Potency against calpain over cathepsin L (Cathepsin L) | Structure (SMILES) | Labeling of calpains (positive control) (Calpain-1 [1]) |
| --- | --- | --- | --- |
| – | – | CCOC(=O)[C@H]1O[C@@H]1C(=O)N[C@@H](CC(C)C)C(=O)N[C@@H](Cc1ccc(O)cc1)C(=O)NCCCCCC(=O)N[C@@H](CCCCNC(=O)CCCC[C@@H]1SC[C@@H]2NC(=O)N[C@@H]21)C(N)=O [DCG-04] | known to label calpains |
| competitive inhibitor | about four fold more potent | CC[C@H](C)[C@H](NC(C)=O)C(=O)N1CCC[C@H]1C(=O)N1CCC[C@H]1C(=O)N[C@@H](CCCCN)C(=O)N[C@@H](Cc1ccc(O)cc1)C(=O)N[C@H]1CSCc2cccc(c2)CSC[C@@H](C(N)=O)NC(=O)[C@H](CC(C)C)NC(=O)[C@H](CC(C)C)NC(=O)[C@H](CCC(=O)O)NC1=O [Peptide 3c] | – |
